Columns and labels:
[1] = test system: acetic acid-induced writhings; assay: Whittle's method: acetic acid-induced writhings; format: in vivo, Male ICR-Mice
Description: (§1) Male ICR-Mice (weighting 25-35 g.), one group being 12 mice, fasted overnight were used in this test. The sample was orally administered, and 20 minutes after, 5 ml./Kg. of 0.4% Evance blue was injected intravenously and further 10 minutes after, 10 ml./Kg. of 0.6% acetic acid was injected intraperitoneally. The number of writhings after 20 minutes since the administration of acetic acid was recorded and further 10 minutes after since then, the mice were killed by dislocation of the neck, the dye leaked in the abdominal cavity was washed out with 5 ml. of 0.9% saline to make the total amount 10 ml., and thereafter furs, blood corpuscles, etc., intermingled were removed by centrifugal separation at 3,000 r.p.m. for 5 minutes. Furthermore, for preventing turbidity caused by protein, 0.1 ml. of an aqueous 0.1 normal sodium hydroxide was added and then the absorbance at 590 nm was measured. The inhibition ratio of the sample administered rat groups to control groups was calculated.
(§2) In addition, the test samples used in the aforesaid tests (a), (b), (c) and (d) were prepared by suspending the test compounds, in the cases of using the compounds of Test Nos. 1-12 and phenylbutazone, in an aqueous 0.5% methyl cellulose solution, dissolving the test compounds, in the cases of using aminopyrine, in distilled water.

[2] = test system: Carrageenin-induced edema; assay: Carrageenin-induced edema (Winter's method); format: in vivo, Male Wister rats; conditions: oral, one hour before carrageenin, edema 3 hours after injection
Description: Male Wister rats (weighting 130-170 g.), one group being 6 rats, fasted overnight were used. According to Winter's method [Proc. Soc. […] After 3 hours, each rat was sacrificed by chloroform and the hind paw was cut and weighed immediately. By using the value obtained by subtracting the weight of the untreated hind paw from the weight of the hind paw having injected thereto the carrageenin as the weight of edema, the inhibitory ratio of the sample administered rat groups to control groups was calculated. The sample was orally administered before one hour of the injection of carrageenin.
as §2

[3] = test system: Permeability (dye leakage into abdominal cavity); assay: Whittle's method: permeability (dye leaked in the abdominal cavity); format: in vivo, Male ICR-Mice
Description: as §1, §2

[4] = test system: Hyperthermia caused by Brewer's yeast; assay: Antipyretic effect (Brewer's yeast hyperthermia); format: in vivo, Male Wister rats; set-up: key: rectal body temperature in °C; conditions: in °C (unit assumed)
Description: Male Wister rats (weighting 130-150 g.), one group being 5 rats, were used. Hyperthermia was caused by subcutaneous injection of 2 ml./rat of 20% Brewer's yeast suspension. 18 hours later, the rats showing a rise in temperature exceeding 1° C. were selected and allocated into groups each consisting of 5 rats. The sample was orally administered and then the body temperature was measured with the passage of time for 6 hours since then. In addition, the body temperature was measured by measuring the temperature in the rectum by means of a thermister thermometer.
as §2

Acute toxicity = format: in vivo, Male Wister rats; conditions: 500 mg/kg oral, observed 7 days; deaths/animals
Description: Male Wister rats (weighting 130-170 g.), one group being 5 rats, fasted overnight were used in this test.
as §2

[5] = 1 hour, 50mg/kg P.O., * significantly different from before administration (P<0.05)
[6] = 2 hours, 50mg/kg P.O., * significantly different from before administration (P<0.05)
[7] = 4 hours, 50mg/kg P.O., * significantly different from before administration (P<0.05)
[8] = 6 hours, 50mg/kg P.O., * significantly different from before administration (P<0.05)
[9] = before administration, group dosed 50mg/kg P.O.

Molecule	Inhibition, Writhings ([1]; 50mg/kg P.O.)	Inhibition (carrageenin-induced edema) ([2]; 25 mg/kg)	Inhibition, Permeability ([3]; 50mg/kg P.O.)	Inhibition (carrageenin-induced edema) ([2]; 50 mg/kg)	further results
2-acetoxy-5-oxo-2,3-dihydro-5H-thiazolo[3,2-b]isoquinoline [Example 9]	82.9%	53.4%			
3-methyl-5-oxo-2,3-dihydro-5H-thiazolo[3,2-b]isoquinoline [Example 1]	57.8%		21.3%		Inhibition, Writhings ([1]; 25mg/kg P.O.): 24.8%; Inhibition, Permeability ([3]; 25mg/kg P.O.): 26.2%
5-oxo-2,3-dihydro-5H-thiazolo[3,2-b]isoquinoline-1,1-dioxide [Example 8]		57.5%	23.5%		
5-oxo-5H-thiazolo[3,2-b]isoquinoline [Example 10]	91.6%	58.0%	32.4%		
5-oxo-5H-thiazolo[3,2-b]isoquinoline-1,1-dioxide [Example 5]		55.3%	36.0%	67.2%	Inhibition, Permeability ([3]; 25mg/kg P.O.): 22.6%
6-oxo-2,3-dihydro-2H,6H-1,3-oxazino[3,2-b]isoquinoline [Example 2]	14.4%	41.7%	20.1%	71.2%	Inhibition, Writhings ([1]; 25mg/kg P.O.): 22.6%; Inhibition, Permeability ([3]; 25mg/kg P.O.): 4.7%
6-oxo-3,4-dihydro-2H,6H-1,3-thiazino[3,2-b]isoquinoline [Example 3]	67.5%	47.0%	37.0%	74.0%	
6-oxo-3,4-dihydro-2H,6H-1,3-thiazino[3,2-b]isoquinoline-1,1-dioxide [Example 7]	69.5%	57.0%	38.6%		
6-oxo-3,4-dihydro-2H,6H-1,3-thiazino[3,2-b]isoquinoline-1-oxide [Example 6]	28.8%	57.1%	37.1%		
Cc1c(N(C)C)c(=O)n(-c2ccccc2)n1C [Aminopyrine, reference compound]	58.1%		41.7%		Inhibition, Writhings ([1]; 25mg/kg P.O.): 29.6%; Rectal temperature (mean±SE) [4, 5]: 37.92±0.09; Rectal temperature (mean±SE) [4, 6]: 37.49±0.10; Rectal temperature (mean±SE) [4, 7]: 37.39±0.07; Rectal temperature (mean±SE) [4, 8]: 37.76±0.19; Rectal temperature (mean±SE) [4, 9]: 39.24±0.14; Inhibition, Permeability ([3]; 25mg/kg P.O.): 28.5%
O=c1c2ccccc2cc2n1CC[S+]2[O-] (stereo not drawn) [Example 4, 5-oxo-2,3-dihydro-5H-thiazolo[3,2-b]isoquinoline-1-oxide]	39.7%	41.2%	41.1%	65.1%	Inhibition, Writhings ([1]; 25mg/kg P.O.): 29.1%; Inhibition, Permeability ([3]; 25mg/kg P.O.): 22.1%
CCCCC1C(=O)N(c2ccccc2)N(c2ccccc2)C1=O [Phenylbutazone, reference compound]		29.4%		44.5%	
O=c1c2ccccc2cc2n1CCCS2 [Test No. 1]		54.8%		69.8%	Rectal temperature (mean±SE) [4, 5]: 38.72±0.13; Rectal temperature (mean±SE) [4, 6]: 38.20±0.15; Rectal temperature (mean±SE) [4, 7]: 37.39±0.23; Rectal temperature (mean±SE) [4, 8]: 37.44±0.32; Rectal temperature (mean±SE) [4, 9]: 39.26±0.19
O=c1c2ccccc2cc2n1CCCS2(=O)=O [Test No. 2]					Rectal temperature (mean±SE) [4, 5]: 39.04±0.23; Rectal temperature (mean±SE) [4, 6]: 38.41±0.21; Rectal temperature (mean±SE) [4, 7]: 37.32±0.31; Rectal temperature (mean±SE) [4, 8]: 37.55±0.33; Rectal temperature (mean±SE) [4, 9]: 38.94±0.14
CC1CSc2cc3ccccc3c(=O)n21 (stereo not drawn) [Test No. 3]					Number of death (Acute toxicity): 3/5
O=c1c2ccccc2cc2n1CCC[S+]2[O-] (stereo not drawn) [Test No. 5]					Number of death (Acute toxicity): 3/5
O=Cc1c2n(c(=O)c3ccccc13)CCCS2 [Test No. 11]		45.9%			
